# According to US20100137398A1, “USE OF HDAC INHIBITORS FOR THE TREATMENT OF GASTROINTESTINAL CANCERS” (NOVARTIS AG, priority 2007, published 2010):
# Key:
# Format in all cases: cell-based
# [1] = test system: DLD-1 colon cancer cell line; assay: Monolayer growth inhibition assay (MTT/MTS)
# Source text: (§1) The MTT is a colorimetric assay to determine the cell proliferation rate. The yellow tetrazolium MTT (3-(4, 5-dimethylthiazolyl-2)-2, 5-diphenyltetrazolium bromide) is reduced, by metabolically active cells, in part by the action of dehydrogenase enzymes, to generate reducing equivalents such as NADH and NADPH. The resulting intracellular purple formazan can be solubilized and quantified by spectrophotometric means. The signals produced is directly proportional to the cell numbers. Describing the MTT assay in detail, experiments were done using six-point or 9 point drug titrations in multi-well tissue culture dishes, with outer rows left empty. Cells were suspended in complete media at densities of between 10^3 and 10^4 cell/ml, respectively, and added per well. The appropriate medium (200 μl) was then added. Twenty-four hours later, 10 μl of MTS solution, were added to one plates to determine the activity at the time of compound addition (T0). This plate was incubated at 37° for 4 hours and the optical density was measured on a Molecular Devices Thermomax at 490 nm using the Softmax program. The T0 plate served as a reference for initial activity at the beginning of the experiment.
# (§2) Compound addition began 24 hours after seeding, the same time as the T0 determination. Serial dilutions at 4-fold 2-fold, 1-fold, 0.5-fold, 0.25-fold and 0.125-fold of previously determined IC50 values of each compound were made in a 96-deep well plate with the highest concentrations on the edge of the plate. Each of the six dilutions were added in triplicate and complete medium was added to the empty outer rows, without cells. The compounds were added to the plates singly or in combination with Compound III (LBH589). The plates were incubated at 37° C. for 72 hours from seeding. The MTS solution was added (as for the T0 plate) and read four hours later. In order to analyze the data, the average value of media alone (background) was subtracted from each experimental well and the triplicate values were averaged for each compound dilution. The following formulas were used to calculate percent growth.
# (§3) If X>T0, % Growth=100×(X−T0)/(GC−T0))
# (§4) If X<T0, % Growth=100×(X−T0)/T0)
# (§5) T0=average value of T0 minus background
# (§6) GC=average value of untreated cells (in triplicate) minus background X=average value, of compound treated cells (in triplicate) minus background
# (§7) IC50 the concentration of LBH589 required to inhibit cell growth by 50% and LD50s the concentration required to reduce cell number (kill cells) to 50% the original innoculum were determined. The “% Growth” was plotted against compound concentration and used to calculate IC50s and LD50s, employing the user-defined spline function in Microsoft Excel.
# (§8) Colon cancer cell lines were treated with DMSO vehicle control or varying concentrations of LBH589 for 3 days. Cell proliferation was measured on the day of cell plating and on the third day post-treatment. IC50 and LD50 values were calculated as described above.
# [2] = test system: HCC2998 colon cancer cell line; assay: Monolayer growth inhibition assay (MTT/MTS)
# Source text: as §1, §2, §3, §4, §5, §6, §7, §8
# [3] = test system: HCT116 Bax −/− colon cancer cell line; assay: Monolayer growth inhibition assay (MTT/MTS)
# Source text: as §1, §2, §3, §4, §5, §6, §7, §8
# [4] = test system: HT115 colon cancer cell line; assay: Monolayer growth inhibition assay (MTT/MTS)
# Source text: as §1, §2, §3, §4, §5, §6, §7, §8
# [5] = test system: HT29 colon cancer cell line; assay: Monolayer growth inhibition assay (MTT/MTS)
# Source text: as §1, §2, §3, §4, §5, §6, §7, §8
# [6] = test system: LOVO colon cancer cell line; assay: Monolayer growth inhibition assay (MTT/MTS)
# Source text: as §1, §2, §3, §4, §5, §6, §7, §8
# [7] = test system: LS1034 colon cancer cell line; assay: Monolayer growth inhibition assay (MTT/MTS)
# Source text: as §1, §2, §3, §4, §5, §6, §7, §8
# [8] = test system: MDST8 colon cancer cell line; assay: Monolayer growth inhibition assay (MTT/MTS)
# Source text: as §1, §2, §3, §4, §5, §6, §7, §8
# [9] = test system: RKO colon cancer cell line; assay: Monolayer growth inhibition assay (MTT/MTS)
# Source text: as §1, §2, §3, §4, §5, §6, §7, §8
# [10] = test system: SW403 colon cancer cell line; assay: Monolayer growth inhibition assay (MTT/MTS)
# Source text: as §1, §2, §3, §4, §5, §6, §7, §8
# [11] = test system: SW837 colon cancer cell line; assay: Monolayer growth inhibition assay (MTT/MTS)
# Source text: as §1, §2, §3, §4, §5, §6, §7, §8
# [12] = test system: SW948 colon cancer cell line; assay: Monolayer growth inhibition assay (MTT/MTS)
# Source text: as §1, §2, §3, §4, §5, §6, §7, §8
# [13] = test system: WiDr colon cancer cell line; assay: Monolayer growth inhibition assay (MTT/MTS)
# Source text: as §1, §2, §3, §4, §5, §6, §7, §8
# [14] = test system: BxPC3 pancreatic cancer cell line; assay: Cell proliferation assay, pancreatic cancer cell lines
# Source text: as §1, §2, §3, §4, §5, §6, §7
# (§9) Pancreatic cancer cell lines were treated with DMSO vehicle control or varying concentrations of LBH589 for 3 days. Cell proliferation was measured on the day of cell plating and on the third day post-treatment. IC50 and LD50 values were calculated as described above.
# [15] = test system: HPAC pancreatic cancer cell line; assay: as above
# Source text: as §1, §2, §3, §4, §5, §6, §7, §9
# [16] = test system: Hs766T pancreatic cancer cell line; assay: as above
# Source text: as §1, §2, §3, §4, §5, §6, §7, §9
# [17] = test system: Panc2.03 pancreatic cancer cell line; assay: as above
# Source text: as §1, §2, §3, §4, §5, §6, §7, §9
# [18] = test system: Panc3.27 pancreatic cancer cell line; assay: as above
# Source text: as §1, §2, §3, §4, §5, §6, §7, §9
# [19] = test system: Panc4.03 pancreatic cancer cell line; assay: as above
# Source text: as §1, §2, §3, §4, §5, §6, §7, §9
# [20] = 3 days, concentration reducing cell number to 50% of original inoculum
# [21] = Homo sapiens, 72 h, 3 days treatment
smiles,measurement,setting,value
"Cc1[nH]c2ccccc2c1CCNCc1ccc(/C=C/C(=O)NO)cc1 [LBH589, N-hydroxy-3-[4-[[[2-(2-methyl-1H-indol-3-yl)ethyl]-amino]methyl]phenyl]-2E-2-propenamide]",LD50,"[1]; DLD-1, 3 days, concentration reducing cell number to 50% of original inoculum",296.27 nM
same,IC50,"[1]; Homo sapiens, 72 h, DLD-1, 3 days treatment",61.4 nM
same,LD50,"[2]; HCC2998, 3 days, concentration reducing cell number to 50% of original inoculum",154.87 nM
same,IC50,"[2]; Homo sapiens, HCC 2998, 72 h, HCC2998, 3 days treatment",29.7 nM
same,LD50,[3]; [20],>10 µM
same,IC50,"[3]; Homo sapiens, HCT-116, 72 h, 3 days treatment",1.73 nM
same,IC50,"[4]; 72 h, HT115, 3 days treatment",3.49 nM
same,LD50,"[4]; HT115, 3 days, concentration reducing cell number to 50% of original inoculum",31.02 nM
same,LD50,"[5]; HT29, 3 days, concentration reducing cell number to 50% of original inoculum",70.23 nM
same,IC50,"[5]; Homo sapiens, HT-29, 72 h, HT29, 3 days treatment",2.83 nM
same,LD50,[6]; [20],52.01 nM
same,IC50,[6]; [21],4.37 nM
same,IC50,"[7]; Homo sapiens, LS-1034, 72 h, LS1034, 3 days treatment",76.7 nM
same,LD50,"[7]; LS1034, 3 days, concentration reducing cell number to 50% of original inoculum",227.83 nM
same,IC50,"[8]; 72 h, MDST8, 3 days treatment",4.87 nM
same,LD50,"[8]; MDST8, 3 days, concentration reducing cell number to 50% of original inoculum",48.44 nM
same,IC50,"[9]; 72 h, 3 days treatment",5.57 nM
same,LD50,[9]; [20],2346.13 nM
same,IC50,"[10]; Homo sapiens, SW-403, 72 h, SW403, 3 days treatment",2.03 nM
same,LD50,"[10]; SW403, 3 days, concentration reducing cell number to 50% of original inoculum",9.84 nM
same,IC50,"[11]; Homo sapiens, 72 h, SW837, 3 days treatment",0.66 nM
same,LD50,"[11]; SW837, 3 days, concentration reducing cell number to 50% of original inoculum",11.46 nM
same,IC50,"[12]; Homo sapiens, 72 h, SW948, 3 days treatment",5.06 nM
same,LD50,"[12]; SW948, 3 days, concentration reducing cell number to 50% of original inoculum",34.92 nM
same,LD50,[13]; [20],41.86 nM
same,IC50,[13]; [21],4.39 nM
same,LD50,"[14]; BxPC3, 3 days, concentration reducing cell number to 50% of original inoculum",104.8 nM
same,IC50,"[14]; Homo sapiens, BXPC-3, 72 h, BxPC3, 3 days treatment",15.9 nM
same,LD50,[15]; [20],2051.6 nM
same,IC50,[15]; [21],123 nM
same,IC50,"[16]; 72 h, 3 days treatment",14.1 nM
same,LD50,[16]; [20],119.9 nM
same,IC50,"[17]; Homo sapiens, Panc203, 72 h, Panc2.03, 3 days treatment",22.4 nM
same,LD50,"[17]; Panc2.03, 3 days, concentration reducing cell number to 50% of original inoculum",599.5 nM
same,LD50,"[18]; Panc3.27, 3 days, concentration reducing cell number to 50% of original inoculum",276.8 nM
same,IC50,"[18]; Pancreatic cancer cell, 72 h, Panc3.27, 3 days treatment",38.5 nM
same,LD50,"[19]; Panc4.03, 3 days, concentration reducing cell number to 50% of original inoculum",>10 µM
same,IC50,"[19]; Pancreatic cancer cell, 72 h, Panc4.03, 3 days treatment",20.3 nM
